Where a name gives a salt, the structure may show the parent alone.
Tested on: not given
Experiment: not given
Conditions: not given

| SMILES | melting point |
| --- | --- |
| COc1nc2c(OCc3c(Cl)ccc(-n4cccc4CNC(=O)/C=C/c4ccc(NC(C)=O)nc4)c3Cl)cccc2n1C [Example 21, 2-[(E)-3-(6-acetamidopyridin-3-yl)acryloylaminomethyl]-1-[2,4-dichloro-3-(2-methoxy-1-methyl-1H-benzimidazol-4-yloxymethyl)phenyl]pyrrole] | 233 to 240 °C |
| Cc1ccc2cccc(OCc3c(Cl)ccc(C(=O)N4CCNCC4)c3Cl)c2n1.Cl.Cl | 195 to 197 °C |
| CNC(=O)c1ccc(C=CC(=O)NC/C=C\c2ccc(Cl)c(COc3cccc4ccc(C)nc34)c2Cl)cc1OC (as salt: hydrochloride) [50-(1) (hydrochloride), 8-[2,6-Dichloro-3-[(Z)-3-[3-methoxy-4-(methylcarbamoyl)cinnamoylamino]-1-propenyl]benzyloxy]-2-methylquinoline] | 222 to 225 °C |

Molecular target: T1, Bradykinin receptor (Cavia porcellus, UniProt O70526)
T1 construct: from tissue; host or cells: guinea pig ileum, crude membrane preparation
T1 sequence (O70526 1-372): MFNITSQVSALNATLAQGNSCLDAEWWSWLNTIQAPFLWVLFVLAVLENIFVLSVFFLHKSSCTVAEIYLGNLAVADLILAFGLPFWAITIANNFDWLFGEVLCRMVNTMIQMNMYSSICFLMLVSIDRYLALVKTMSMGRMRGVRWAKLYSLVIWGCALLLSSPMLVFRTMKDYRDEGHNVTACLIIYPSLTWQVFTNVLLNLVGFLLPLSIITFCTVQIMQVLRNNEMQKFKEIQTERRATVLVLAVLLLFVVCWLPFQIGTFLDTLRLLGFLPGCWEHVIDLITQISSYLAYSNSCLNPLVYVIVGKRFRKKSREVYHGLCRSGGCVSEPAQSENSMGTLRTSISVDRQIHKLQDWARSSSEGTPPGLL
Experiment: 3H-Bradykinin receptor binding (crude guinea pig ileum membrane)
Conditions: crude ileum membrane of male Hartly strain guinea pigs; 3H-Bradykinin 0.06 nM; room temperature, 60 minutes; read-out: Inhibition of 3H-Bradykinin binding IC50
Description: ^3H-Bradykinin receptor binding
(a) Crude ileum membrane preparation
Male Hartly strain guinea pigs were sacrificed by decapitation. The ileum was removed and homogenized in buffer (50 mM trimethylaminoethanesulfonic acid (TES), 1 mM 1,10-phenanthroline pH 6.8). The homogenate was centrifuged (1000×g, 20 minutes) to remove tissue clumps and the supernatant was centrifuges (100,000×g, 60 minutes) to yield a pellet. The pellet was resuspended in buffer (50 mM TES, 1 mM 1,10-phenanthroline, 140 mg/l bacitracin, 1 mM dithiothreiol, 0.1% bovine serum albumin pH 6.8) and homogenized with a glass-teflon homogenizer to yield suspension which was referred to as crude membrane suspension. The obtained membrane suspension was stored at −80° C. until use.
(b) ^3H-Bradykinin binding to the membrane
The frozen crude membrane suspension was thawed. In binding assays, ^3H-Bradykinin (0.06 nM) and the test compound were incubated with 50 μl of the membrane suspension at room temperature for 60 minutes in a final volume of 250 μl. Separation of receptor-bound from free ^3H-Bradykinin is achieved by immediate filtration under vacuum and washed three times with 5 ml of ice-cold buffer (50 mM Tris-HCl pH 7.5). Non-specific binding was defined as binding in the presence of 0.1 μM Bradykinin. The radioactivity retained on rinsed filters was determined by a liquid-scintillation counter.

| SMILES | IC50 |
| --- | --- |
| CCOC(=O)c1ccc(/C=C/C(=O)NCc2cccn2-c2ccc(Cl)c(COc3cccc4ccc(C)nc34)c2Cl)cn1 [16-(1), 1-[2,4-Dichloro-3-(2-methylquinolin-8-yloxymethyl)phenyl]-2-[(E)-3-(6-ethoxycarbonylpyridin-3-yl)acryloylaminomethyl]pyrrole] | 3.3 nM |
| Cc1ccc2cccc(OCc3c(Cl)ccc(-n4cccc4CNC(=O)/C=C/c4ccc(/C=C/c5ccncc5)nc4)c3Cl)c2n1 [15 (trihydrochloride), 1-[2,4-Dichloro-3-(2-methylquinolin-8-yloxymethyl)phenyl]-2-[(E)-3-[6-[(E)-2-(pyridin-4-yl)vinyl]pyridin-3-yl]acryloylaminomethyl]pyrrole] | 2.6 nM |
| CNC(=O)c1ccc(/C=C/C(=O)NCc2cccn2-c2ccc(Cl)c(COc3cccc4c(-n5ccnc5)cc(C)nc34)c2Cl)cc1 [33 (dihydrochloride)] | 3.2 nM |
| CNC(=O)c1ccc(/C=C/C(=O)NCc2ccccc2-c2ccc(C)c(COc3cccc4ccc(C)nc34)c2C)cc1 [40-(6)] | 2.3 nM |
| CNC(=O)c1ccc(C=CC(=O)NCc2sccc2-c2ccc(C)c(COc3cccc4ccc(C)nc34)c2C)cc1 [45-(6) (hydrochloride), 3-[2,4-Dimethyl-3-(2-methylquinolin-8-yloxymethyl)-phenyl]-2-[4-(methylcarbamoyl)-cinnamoylaminomethyl]thiophene] | 2.8 nM |
| Cc1nc2c(OCc3c(Cl)ccc(-n4cccc4CNC(=O)/C=C/c4ccc(/C=C/c5ccncc5)nc4)c3Cl)cccn2c1Br [23-(3) (trihydrochloride), 1-(3-(3-bromo-2-methylimidazo[1,2-a]pyridin-8-yloxymethyl)-2,4-dichlorophenyl]-2-[(E)-3-[6-[(E)-2-(pyridin-4-yl)vinyl]pyridin-3-yl]acryloylaminomethyl]pyrrole] | 4.3 nM |
| CNC(=O)c1ccc(C=CC(=O)NC/C=C\c2ccc(Cl)c(COc3cccc4ccc(C)nc34)c2Cl)cc1OC [50-(1) (hydrochloride), 8-[2,6-Dichloro-3-[(Z)-3-[3-methoxy-4-(methylcarbamoyl)cinnamoylamino]-1-propenyl]benzyloxy]-2-methylquinoline] | 7.4 nM |

From patent US6344462B1, “Heterocyclic compounds as bradykinin antagonists” (Fujisawa Pharmaceutical Co., Ltd., priority 1995, dated 2002)
